# Assay results as given in patent US10653658B2, “Biofilm inhibiting compositions enhancing weight gain in livestock” (Akeso Biomedical, Inc., priority 2015, dated 2020).
# Marks after values point to notes of the source that are not given here.
# Assay: Dose ranging study of FeTyr (TYPLEX) in feed, zootechnical performance of broilers, dirty litter challenge at day 20 (Example 10)
# Type: in vivo, Ross 308 male broilers
# Settings: for AFI / AWG / MFCR / AFI/bird/period / AWG/bird/period: 0.22 g Q-PLEX/kg feed
# Protocol: A study was performed to evaluate growth promotion and reduction of Campylobacter carriage using FeTyr in Ross 308 male broilers with 7 treatment groups. Each treatment group comprised eight replicates of 10 birds per pen (80 birds/treatment group), with 2 control groups and […]. All the test groups and both of the control groups were exposed at day 20 of the trial to dirty litter, which tested positive for Campylobacter. This method was used to provide a more natural method to Campylobacter challenge the birds. Thus there were two positive controls where each treatment group was challenged with Campylobacter, and five treatment groups that were all challenged with Campylobacter. The total number of birds used in the 7 treatment groups was 560.
# Treatment group 1 was a positive control where birds just received the commercial feed, and were challenged with dirty litter containing Campylobacter at day 20. Treatment group 2 received 0.01 g/kg of TYPLEX (FeTyr) in their feed, and were challenged with dirty litter containing Campylobacter at day 20. Treatment group 3 received 0.02 g/kg of TYPLEX (FeTyr) in their feed, and was challenged with dirty litter containing Campylobacter at day 20. Treatment group 4 received 0.05 g/kg of TYPLEX (FeTyr) in their feed, and was challenged with dirty litter containing Campylobacter at day 20. Treatment group 5 received 0.1 g/kg of TYPLEX (FeTyr) in their feed, and was challenged with dirty litter containing Campylobacter at day 20. Treatment group 6 received 0.2 g/kg of TYPLEX (FeTyr) in their feed, and was challenged with dirty litter containing Campylobacter at day 20. […] The birds were fed with a commercial three-phase feeding program using starter, grower and finisher feeds as described in Example 1. The birds were reared in floor pens to day 42, and fed starter, grower and finisher feed at day 0 to 11, 11 to 24, and 24 to 42 days, respectively. All birds were weighed individually and feed weigh backs recorded per pen at day 0, 11, 21, 24 and 42 days.
# At day 20, litter, which was naturally Campylobacter-contaminated, was tested to confirm the presence of Campylobacter, and then added (approximately 2 kg/pen) to the litter in all pens. At day 42, caecal samples were taken and tested for Campylobacter, E. coli and Salmonella enumeration.
# In order to minimize risk of cross-contamination, standard industry biosecurity measures were used including: disinfecting boots, changing overshoes and gloves between pens/treatments, entering Campylobacter negative pens before entering Campylobacter positive pens, and leaving adjacent pens empty. Daily health, culls, and mortality were recorded. All bird weights were recorded at 0, 11, 21, 24, 33 and 42 days. Weight gains, feed intake and feed conversion ratio (FCR) were derived for each feeding period.
smiles,measurement,setting,value
"O=C([O-])C1(O)CC(O)C(O)C(O)C1.O=C([O-])C1(O)CC(O)C(O)C(O)C1.O=C([O-])C1(O)CC(O)C(O)C(O)C1.[Fe+3] (stereo not shown) [FeQ, Ferric Quinate]",AFI,0-25 d of age,1.898 kg
same,AWG,0-25 d of age,1.422^c kg
same,MFCR,0-25 d of age,1.335^a feed:gain
same,AFI/bird/period,0-35 d of age,3.815 kg
same,AWG/bird/period,0-35 d of age,0.668 kg
same,MFCR,0-35 d of age,1.458^a feed:gain
same,AFI/bird/period,0-42 d of age,5.279 kg
same,AWG/bird/period,0-42 d of age,3.448^ab kg
same,MFCR,0-42 d of age,1.547^a feed:gain
same,AFI,35 to 42 d of age,1.464 kg
same,AWG,35 to 42 d of age,0.790 kg
same,MFCR,35 to 42 d of age,1.864 feed:gain
same,ABW (average body weight/pen) 1 d,T7 0.22 g Q-PLEX/kg feed,0.040 kg
same,ABW (average body weight/pen) 11 d,T7 0.22 g Q-PLEX/kg feed,0.350^b kg
same,ABW (average body weight/pen) 20 d,T7 0.22 g Q-PLEX/kg feed,0.968 kg
same,ABW (average body weight/pen) 25 d,T7 0.22 g Q-PLEX/kg feed,1.463^c kg
same,ABW (average body weight/pen) 28 d,T7 0.22 g Q-PLEX/kg feed,1.836^b kg
same,ABW (average body weight/pen) 30 d,T7 0.22 g Q-PLEX/kg feed,2.031^b kg
same,ABW (average body weight/pen) 35 d,T7 0.22 g Q-PLEX/kg feed,2.698^ab kg
same,ABW (average body weight/pen) 42 d,T7 0.22 g Q-PLEX/kg feed,3.488^ab kg
same,AFI (mean feed intake/pen) 1 to 11 d,T7 0.22 g Q-PLEX/kg feed,0.357^b kg
same,AFI (mean feed intake/pen) 11 to 20 d,T7 0.22 g Q-PLEX/kg feed,0.836^ab kg
same,AFI (mean feed intake/pen) 11 to 25 d,T7 0.22 g Q-PLEX/kg feed,1.541 kg
same,AFI (mean feed intake/pen) 20 to 35 d,T7 0.22 g Q-PLEX/kg feed,2.622 kg
same,AFI (mean feed intake/pen) 25-42 d,T7 0.22 g Q-PLEX/kg feed,3.381 kg
same,AFI/bird/period 20-25 d,T7 0.22 g Q-PLEX/kg feed,0.705 kg
same,AFI/bird/period 25-35 d,T7 0.22 g Q-PLEX/kg feed,1.917 kg
same,AWG (mean weight gain/pen) 1 to 11 d,T7 0.22 g Q-PLEX/kg feed,0.310^b kg
same,AWG (mean weight gain/pen) 11 to 20 d,T7 0.22 g Q-PLEX/kg feed,0.618 kg
same,AWG (mean weight gain/pen) 11 to 25 d,T7 0.22 g Q-PLEX/kg feed,1.113^b kg
same,AWG (mean weight gain/pen) 20 to 35 d,T7 0.22 g Q-PLEX/kg feed,1.730^ab kg
same,AWG (mean weight gain/pen) 25-42 d,T7 0.22 g Q-PLEX/kg feed,2.026^ab kg
same,AWG/bird/period 20-25 d,T7 0.22 g Q-PLEX/kg feed,0.495 kg
same,AWG/bird/period 25-35 d,T7 0.22 g Q-PLEX/kg feed,1.236^abc kg
same,MFCR 1 to 11 d,T7 0.22 g Q-PLEX/kg feed,1.150^x feed:gain
same,MFCR 11 to 20 d,T7 0.22 g Q-PLEX/kg feed,1.357^ab feed:gain
same,MFCR 11 to 25 d,T7 0.22 g Q-PLEX/kg feed,1.387^a feed:gain
same,MFCR 20-25 d,T7 0.22 g Q-PLEX/kg feed,1.430^a feed:gain
same,MFCR 20 to 35 d,T7 0.22 g Q-PLEX/kg feed,1.554^a feed:gain
same,MFCR 25-35 d,T7 0.22 g Q-PLEX/kg feed,1.607^ab feed:gain
same,MFCR 25-42 d,T7 0.22 g Q-PLEX/kg feed,1.703^ab feed:gain
same,MFCR at day 42 compared to control group (FIG. 13),"all treatment groups, in feed",improved MFCR values
same,average body weight at day 42 compared with control group (FIG. 12),"all treatment groups, in feed",higher average body weight
